Test results as given in patent publication US10336762B2 (priority 2017, dated 2019).

Key:
IRAK4 enzyme = IRAK4 enzyme (Homo sapiens (Human), UniProt Q9NWZ3); assay: biochemical; format: biochemical; conditions: IRAK4 enzyme, TR-FRET, 500 μM ATP
TNFα = assay: cells; format: cell-based, human; conditions: Homo sapiens, Monocyte, LPS-stimulated human monocytes, TNFα content; read-out: EC50 TNF

Sequence of IRAK4 enzyme (Q9NWZ3 whole entry): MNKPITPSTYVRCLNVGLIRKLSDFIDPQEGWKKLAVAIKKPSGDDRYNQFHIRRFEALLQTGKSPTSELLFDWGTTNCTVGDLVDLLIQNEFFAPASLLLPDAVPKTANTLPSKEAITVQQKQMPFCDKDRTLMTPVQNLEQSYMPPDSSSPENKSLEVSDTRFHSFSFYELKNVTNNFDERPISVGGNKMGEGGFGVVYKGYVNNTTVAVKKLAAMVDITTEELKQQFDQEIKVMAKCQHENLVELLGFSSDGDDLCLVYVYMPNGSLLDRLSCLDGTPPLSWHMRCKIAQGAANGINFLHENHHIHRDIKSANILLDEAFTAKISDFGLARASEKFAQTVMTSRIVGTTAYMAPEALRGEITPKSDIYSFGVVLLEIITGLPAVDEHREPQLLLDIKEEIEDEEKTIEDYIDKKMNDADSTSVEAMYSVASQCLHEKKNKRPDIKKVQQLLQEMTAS

| SMILES | IC50 (IRAK4 enzyme) [nM] | EC50 (TNFα) [nM] |
| --- | --- | --- |
| Cc1nnc(-c2ccc(Nc3cc(-c4ccc5cc(C#N)cnn45)ncc3C(=O)NC[C@@H](F)C(C)(C)O)cc2)[nH]1 [Example 218, (R)-6-(3-cyanopyrrolo[1,2-b]pyridazin-7-yl)-N-(2-fluoro-3-hydroxy-3-methylbutyl)-4-((4-(5-methyl-4H-1,2,4-triazol-3-yl)phenyl)amino) nicotinamide] | < 1 | 41 |
| CC(C)(O)[C@H](F)CNC(=O)c1cnc(-c2ccc3cc(C#N)cnn23)cc1Nc1cccc(-c2cnc[nH]2)c1 [Example 219, (R)-4-((3-(1H-imidazol-5-yl)phenyl)amino)-6-(3-cyanopyrrolo[1,2-b]pyridazin-7-yl)-N-(2-fluoro-3-hydroxy-3-methylbutyl)nicotinamide] | 1 | 209 |
| CC(=O)NCc1cccc(Nc2cc(-c3ccc4cc(C#N)cnn34)ncc2C(=O)NC[C@@H](F)C(C)(C)O)c1 [Example 220, (R)-4-((3-(acetamidomethyl)phenyl)amino)-6-(3-cyanopyrrolo[1,2-b]pyridazin-7-yl)-N-(2-fluoro-3-hydroxy-3-methylbutyl)nicotinamide] | 1 | 123 |
| CC(C)(O)[C@H](F)CNC(=O)c1cnc(-c2ccc3cc(C#N)cnn23)cc1Nc1cccc(-c2ncc[nH]2)c1 [Example 221, (R)-4-((3-(1H-imidazol-2-yl)phenyl)amino)-6-(3-cyanopyrrolo[1,2-b]pyridazin-7-yl)-N-(2-fluoro-3-hydroxy-3-methylbutyl)nicotinamide] | < 1 | 98 |
| CC(C)(O)[C@H](F)CNC(=O)c1cnc(-c2ccc3cc(C#N)cnn23)cc1Nc1cncc(C2CC2)c1 [Example 222, (R)-6-(3-cyanopyrrolo[1,2-b]pyridazin-7-yl)-4-((5-cyclopropylpyridin-3-yl)amino)-N-(2-fluoro-3-hydroxy-3-methylbutyl)nicotinamide] | 1 | 151 |
| CC(C)(O)[C@H](F)CNC(=O)c1cnc(-c2ccc3cc(C#N)cnn23)cc1Nc1cnn([C@H]2CCNC2)c1 [Example 223, 6-(3-cyanopyrrolo[1,2-b]pyridazin-7-yl)-N-((R)-2-fluoro-3-hydroxy-3-methylbutyl)-4-((1-((S)-pyrrolidin-3-yl)-1H-pyrazol-4-yl)amino) nicotinamide] | < 1 | 13 |
| COC(=O)N1CC[C@H](n2cc(Nc3cc(-c4ccc5cc(C#N)cnn45)ncc3C(=O)NC[C@@H](F)C(C)(C)O)cn2)C1 [Example 224, (S)-methyl 3-(4-((2-(3-cyanopyrrolo[1,2-b]pyridazin-7-yl)-5-(((R)-2-fluoro-3-hydroxy-3-methylbutyl)carbamoyl)pyridin-4-yl)amino)-1H-pyrazol-1-yl) pyrrolidine-1-carboxylate] | 1 | 75 |
| COC(=O)NCc1ccc(Nc2cc(-c3ccc4cc(C#N)cnn34)ncc2C(=O)NC[C@@H](F)C(C)(C)O)cc1 [Example 225, (R)-methyl (4-((2-(3-cyano-pyrrolo[1,2-b]pyridazin-7-yl)-5-((2-fluoro-3-hydroxy-3-methylbutyl)carbamoyl)pyridin-4-yl)amino)benzyl)carbamate] | < 1 | 6 |
| CC(C)(O)[C@H](F)CNC(=O)c1cnc(-c2ccc3cc(C#N)cnn23)cc1Nc1cncc(C(F)F)c1 [Example 226, (R)-6-(3-cyanopyrrolo[1,2-b]pyridazin-7-yl)-4-((5-(difluoromethyl)pyridin-3-yl)amino)-N-(2-fluoro-3-hydroxy-3-methylbutyl)nicotinamide] | < 1 | 75 |
| CC(C)(O)[C@H](F)CNC(=O)c1cnc(-c2ccc3cc(C#N)cnn23)cc1Nc1ccc(C(F)F)nc1 [Example 227, (R)-6-(3-cyanopyrrolo[1,2-b]pyridazin-7-yl)-4-((6-(difluoromethyl)pyridin-3-yl)amino)-N-(2-fluoro-3-hydroxy-3-methylbutyl)nicotinamide] | < 1 | 31 |
| CC(C)(O)[C@H](F)CNC(=O)c1cnc(-c2ccc3cc(C#N)cnn23)cc1Nc1ccc(-c2ncco2)cc1 [Example 228, (R)-6-(3-cyanopyrrolo[1,2-b]pyridazin-7-yl)-N-(2-fluoro-3-hydroxy-3-methylbutyl)-4-((4-(oxazol-2-yl)phenyl)amino) nicotinamide] | 2 | 114 |
| CC(C)(O)[C@H](F)CNC(=O)c1cnc(-c2ccc3cc(C#N)cnn23)cc1Nc1cccnc1F [Example 229, (R)-6-(3-cyanopyrrolo[1,2-b]pyridazin-7-yl)-N-(2-fluoro-3-hydroxy-3-methylbutyl)-4-((2-fluoropyridin-3-yl)amino)nicotinamide] | 1 | 135 |
| CC(C)(O)[C@H](F)CNC(=O)c1cnc(-c2ccc3cc(C#N)cnn23)cc1Nc1ccc(-c2ncc[nH]2)cc1 [Example 230, (R)-4-((4-(1H-imidazol-2-yl)phenyl)amino)-6-(3-cyanopyrrolo[1,2-b]pyridazin-7-yl)-N-(2-fluoro-3-hydroxy-3-methylbutyl)nicotinamide] | < 1 | 58 |
| COC(=O)N1CC(n2cc(Nc3cc(-c4ccc5cc(C#N)cnn45)ncc3C(=O)NC[C@@H](F)C(C)(C)O)cn2)C1 [Example 231, (R)-methyl 3-(4-((2-(3-cyanopyrrolo[1,2-b]pyridazin-7-yl)-5-((2-fluoro-3-hydroxy-3-methylbutyl)carbamoyl)pyridin-4-yl)amino)-1H-pyrazol-1-yl)azetidine-1-carboxylate] | < 1 | 61 |
| CC(C)(O)[C@H](F)CNC(=O)c1cnc(-c2ccc3cc(C#N)cnn23)cc1Nc1cnn(C2CNC2)c1 [Example 232, (R)-4-((1-(azetidin-3-yl)-1H-pyrazol-4-yl)amino)-6-(3-cyanopyrrolo[1,2-b]pyridazin-7-yl)-N-(2-fluoro-3-hydroxy-3-methylbutyl)nicotinamide] | 1 | 425 |
| Cc1cncc(Nc2cc(-c3ccc4cc(C#N)cnn34)ncc2C(=O)NC[C@@H](F)C(C)(C)O)c1 [Example 233, (R)-6-(3-cyanopyrrolo[1,2-b]pyridazin-7-yl)-N-(2-fluoro-3-hydroxy-3-methylbutyl)-4-((5-methylpyridin-3-yl)amino)nicotinamide] | 1 | 170 |
| CC(C)(O)[C@H](F)CNC(=O)c1cnc(-c2ccc3cc(C#N)cnn23)cc1Nc1ccc(-c2c[nH]cn2)cc1 [Example 234, (R)-4-((4-(1H-imidazol-4-yl)phenyl)amino)-6-(3-cyanopyrrolo[1,2-b]pyridazin-7-yl)-N-(2-fluoro-3-hydroxy-3-methylbutyl) nicotinamide] | < 1 | 33 |
| COC(=O)N1CCC(n2cc(Nc3cc(-c4ccc5cc(C#N)cnn45)ncc3C(=O)NC[C@@H](F)C(C)(C)O)cn2)CC1 [Example 235, (R)-methyl 4-(4-((2-(3-cyanopyrrolo[1,2-b]pyridazin-7-yl)-5-((2-fluoro-3-hydroxy-3-methylbutyl)carbamoyl)pyridin-4-yl)amino)-1H-pyrazol-1-yl)piperidine-1-carboxylate] | 2 | 166 |
| CC(C)(O)[C@H](F)CNC(=O)c1cnc(-c2ccc3cc(C#N)cnn23)cc1Nc1cnn(C2CCNCC2)c1 [Example 236, (R)-6-(3-cyanopyrrolo[1,2-b]pyridazin-7-yl)-N-(2-fluoro-3-hydroxy-3-methylbutyl)-4-((1-(piperidin-4-yl)-1H-pyrazol-4-yl)amino) nicotinamide] | 1 | 379 |
| CC(C)(O)[C@H](F)CNC(=O)c1cnc(-c2ccc3cc(C#N)cnn23)cc1Nc1cnn([C@H]2CCOC2)c1 [Example 237, 6-(3-cyanopyrrolo[1,2-b]pyridazin-7-yl)-N-((R)-2-fluoro-3-hydroxy-3-methylbutyl)-4-((1-((S)-tetrahydrofuran-3-yl)-1H-pyrazol-4-yl)amino) nicotinamide] | 1 | 23 |
| CC(C)(O)[C@H](F)CNC(=O)c1cnc(-c2ccc3cc(C#N)cnn23)cc1N[C@@H]1CC2CN(C(N)=O)C[C@H]2C1 (stereo partly drawn) [Example 238, (3aR,5s,6aS)-5-((2-(3-cyanopyrrolo[1,2-b]pyridazin-7-yl)-5-(((R)-2-fluoro-3-hydroxy-3-methylbutyl)carbamoyl)pyridin-4-yl)amino)hexa-hydrocyclopenta[c]pyrrole-2(1H)-carboxamide] | < 1 | 225 |
| CC(C)(O)[C@H](F)CNC(=O)c1cnc(-c2ccc3cc(C#N)cnn23)cc1Nc1cnn([C@@H]2CCOC2)c1 [Example 239, 6-(3-cyanopyrrolo[1,2-b]pyridazin-7-yl)-N-((R)-2-fluoro-3-hydroxy-3-methylbutyl)-4-((1-((R)-tetrahydrofuran-3-yl)-1H-pyrazol-4-yl)amino) nicotinamide] | < 1 | 24 |
| CC(C)(O)[C@H](F)CNC(=O)c1cnc(-c2ccc3cc(C#N)cnn23)cc1N[C@@H]1CNCCC1(F)F [Example 240, 6-(3-cyanopyrrolo[1,2-b]pyridazin-7-yl)-4-(((R)-4,4-difluoropiperidin-3-yl)amino)-N-((R)-2-fluoro-3-hydroxy-3-methylbutyl) nicotinamide] | 1 | 27 |
| CC(=O)NCc1ccc(Nc2cc(-c3ccc4cc(C#N)cnn34)ncc2C(=O)NC[C@@H](F)C(C)(C)O)cc1 [Example 241, (R)-4-((4-(acetamidomethyl)phenyl)amino)-6-(3-cyanopyrrolo[1,2-b]pyridazin-7-yl)-N-(2-fluoro-3-hydroxy-3-methylbutyl)nicotinamide] | < 1 | 16 |
| COC(=O)N1CCC(Nc2cc(-c3ccc4cc(C#N)cnn34)ncc2C(=O)NC[C@@H](F)C(C)(C)O)CC1 [Example 242, (R)-methyl 4-((2-(3-cyano-pyrrolo[1,2-b]pyridazin-7-yl)-5-((2-fluoro-3-hydroxy-3-methylbutyl)carbamoyl)pyridin-4-yl)amino)piperidine-1-carboxylate] | 2 | 191 |
